Source: PubChem BioAssay AID248 (DTP/NCI, 2004)
Where “and” joins values, the source holds several entries; their conditions need not be identical. Equal values may be shown once. Inconclusive results and toxic doses are left out. Rule as the data show it: active = T/C of 150% or more; inactive = T/C below 125%.

Tested on: L1210 leukemia ip in BDF1 mice, survival T/C
Assay: NCI In Vivo Anticancer Drug Screen. Data for tumor model L1210 Leukemia (intraperitoneal) in B6D2F1 (BDF1) mice
Details: endpoint: mean survival time, higher = longer survival
Method in brief: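 Transplanted-tumor mice were given test agent; controls received vehicle only. Survival readings from the two groups were divided (treated over control).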

[1] = dose: 100.0 mg/kg/injection, schedule: Q01DX001 (ip), vehicle: saline
[2] = dose: 200.0 mg/kg/injection, schedule: Q01DX001 (ip), vehicle: saline
[3] = dose: 400.0 mg/kg/injection, schedule: Q01DX001 (ip), vehicle: saline
[4] = dose: 75.0 mg/kg/injection, schedule: Q01DX001 (ip), vehicle: saline
[5] = dose: 150.0 mg/kg/injection, schedule: Q01DX001 (ip), vehicle: saline
[6] = dose: 300.0 mg/kg/injection, schedule: Q01DX001 (ip), vehicle: saline
[7] = dose: 25.0 mg/kg/injection, schedule: Q01DX009 (ip), vehicle: saline
[8] = dose: 50.0 mg/kg/injection, schedule: Q01DX009 (ip), vehicle: saline
[9] = dose: 100.0 mg/kg/injection, schedule: Q01DX009 (ip), vehicle: saline
[10] = dose: 200.0 mg/kg/injection, schedule: Q01DX009 (ip), vehicle: saline
[11] = dose: 100.0 mg/kg/injection, schedule: Q04DX003 (ip), vehicle: saline with Tween-80
[12] = dose: 200.0 mg/kg/injection, schedule: Q04DX003 (ip), vehicle: saline with Tween-80
[13] = dose: 400.0 mg/kg/injection, schedule: Q04DX003 (ip), vehicle: saline with Tween-80

Measured: T/C

OC1CCCCC1[n+]1ccccc1 (stereo not drawn) (tested in a mixture with another compound)
inactive: [1] 103 % of control | [2] 88 % of control | [3] 101 % of control

O=[N+]([O-])c1ccc(O)c(C2CCCCC2)c1
inactive: dose: 100.0 mg/kg/injection, schedule: Q01DX009 (ip), vehicle: gum acacia 92 % of control | dose: 200.0 mg/kg/injection, schedule: Q01DX009 (ip), vehicle: gum acacia 87 % of control | dose: 400.0 mg/kg/injection, schedule: Q01DX009 (ip), vehicle: gum acacia 86 % of control

CCCC[S][Pb]([c]1ccccc1)([c]1ccccc1)[c]1ccccc1
inactive: dose: 100.0 mg/kg/injection, schedule: Q01DX001 (ip), vehicle: Klucel (hydroxypropylcellulose) (HPC) 101 % of control | dose: 200.0 mg/kg/injection, schedule: Q01DX001 (ip), vehicle: Klucel (hydroxypropylcellulose) (HPC) 106 % of control

Cc1ccc(Cl)cc1N=C=S
inactive: [4] 100 % of control | [5] 101 % of control | [6] 106 % of control

COc1ccc(C=[N+](C)CCc2ccc(OC)c(OC)c2)cc1OC
inactive: [7] 96 % of control | [8] 101 % of control | [9] 93 % of control and 116 % of control | dose: 100.0 mg/kg/injection, schedule: Q04DX003 (ip), vehicle: saline 100 % of control | [10] 98 % of control and 91 % of control | dose: 200.0 mg/kg/injection, schedule: Q04DX003 (ip), vehicle: saline 97 % of control

CCN(CC)C(=O)c1cccnc1
inactive: dose: 12.5 mg/kg/injection, schedule: Q01DX009 (ip), vehicle: saline 102 % of control | [7] 89 % of control | [8] 93 % of control | [4] 102 % of control | [9] 105 % of control | [5] 94 % of control | [10] 93 % of control | [6] 90 % of control

O=c1c(N=Nc2ccc(Br)cc2)c(O)n(-c2ccc(Cl)cc2)c(=S)n1-c1ccccc1
inactive: dose: 37.5 mg/kg/injection, schedule: Q01DX001 (ip), vehicle: Klucel (hydroxypropylcellulose) (HPC) 107 % of control | dose: 75.0 mg/kg/injection, schedule: Q01DX001 (ip), vehicle: Klucel (hydroxypropylcellulose) (HPC) 108 % of control | dose: 150.0 mg/kg/injection, schedule: Q01DX001 (ip), vehicle: Klucel (hydroxypropylcellulose) (HPC) 104 % of control

CC(N)C(O)C(Cl)(Cl)Cl (stereo not drawn)
inactive: [11] 92 % of control | [12] 92 % of control | [13] 90 % of control

CN1CN(c2ccccc2)C2(CCN(Cc3ccccc3)CC2)C1=O
inactive: [1] 101 % of control | [2] 101 % of control | [3] 103 % of control

CCNC(=O)OCCN1C(=O)C2C3CCC(O3)C2C1=O (stereo not drawn)
inactive: dose: 100.0 mg/kg/injection, schedule: Q01DX001 (ip), vehicle: saline with Tween-80 98 % of control | [11] 100 % of control | dose: 200.0 mg/kg/injection, schedule: Q01DX001 (ip), vehicle: saline with Tween-80 103 % of control | [12] 100 % of control | dose: 400.0 mg/kg/injection, schedule: Q01DX001 (ip), vehicle: saline with Tween-80 113 % of control | [13] 97 % of control

Cc1cc(O)c([N+](=O)[O-])c(=O)o1 (tested in a mixture with another compound)
inactive: dose: 100.0 mg/kg/injection, schedule: Q04DX002 (ip), vehicle: Klucel (hydroxypropylcellulose) (HPC) 108 % of control | dose: 200.0 mg/kg/injection, schedule: Q04DX002 (ip), vehicle: Klucel (hydroxypropylcellulose) (HPC) 97 % of control | dose: 400.0 mg/kg/injection, schedule: Q04DX002 (ip), vehicle: Klucel (hydroxypropylcellulose) (HPC) 87 % of control
